What was measured:
[1] = tested on: STZ diabetic rats; assay: Echocardiography (hemodynamics) in STZ diabetic rats during i.v. infusion; format: in vivo, rat
Experimental: Drug effects reached a plateau at 15 min of infusion; 10 min after discontinuation of the infusion, most echo indexes affected by the compound returned to the basal level.
Echocardiographic parameters were measured before (basal) and at 15 and 30 min during drug infusion and 10 min after drug interruption under urethane anesthesia. Data are the mean ± SEM; all the results of echocardiographic indexes are summarized in Table S2; N = 13; *p < 0.05 (one-way RM ANOVA).
Diabetes was induced in Sprague Dawley male rats (150–175 g) by a single i.v. STZ group (50 mg/kg in citrate buffer) injection in the tail vein. Control (healthy group) rats received vehicle (citrate buffer).
Rats were studied by transthoracic echocardiographic under anesthesia (1.25 g/kg urethane, i.p). Left-ventricular end-diastolic (LVEDD) and end-systolic (LVESD) diameter, posterior wall (PWT), and interventricular septal thickness (IVST) were measured according to the American Society of Echocardiography guidelines.[16] FS was calculated as FS = (LVEDD – LVESD)/LVEDD. Trans-mitral flow velocity was measured (pulsed Doppler) to obtain early and late filling velocities (E and A waves) and E wave deceleration time (DT). […]
Hemodynamic studies in rats with diabetic cardiomyopathy
Control (healthy group) rats received STZ vehicle (citrate buffer). […]
were considered diabetic9.
Two-dimensionally guided M-mode recordings were […]
the American Society of Echocardiography guidelines13. Fractional shortening was calculated as FS = […]
E wave deceleration time (DT). […]
jugular vein for drug infusion in rats. Rats were randomly submitted to an echocardiographic study […]
intravenous infusion at the dose of 0.2 mg/kg/min. Echo parameters were measured at 15 and 30 min after infusion start and 10 min after drug interruption under urethane anesthesia. Data are mean ± SEM. *p<0.05 vs basal (one-way ANOVA for repeated measurements). […]
basal after 15 min after 30 min after 10 min

[2] = tested on: SR Ca^2+ uptake in STZ cardiomyocytes; assay: SR loading protocol (SR Ca2+ uptake under NCX inhibition) in patch-clamped STZ myocytes; format: cell-based, rat; settings: 1 μM
[3] = tested on: Na^+/K^+ ATPase current (INaK); assay: Na+/K+ ATPase current (INaK) in isolated rat LV myocytes; format: cell-based; settings: isolated rat cardiomyocytes
[4] = i.v. infusion 0.2 mg/kg/min, after 15 min
[5] = i.v. infusion 0.2 mg/kg/min, after 30 min

Compound: C[C@]12CC[C@H](CCCC(=O)O)C[C@@H]1[C@@H](O)C[C@@H]1[C@@H]2CC[C@]2(C)C(=O)CC[C@@H]12 [Compound 5]
- CO ([1]; 10 min after drug interruption): 153,2±10,67 ml/min
- DT ([1]; 10 min after drug interruption): 52,4±4,36 ms
- DT/E ([1]; 10 min after drug interruption): 68,2±6,13 s2/mm
- E/A ([1]; 10 min after drug interruption): 1,37±0,06
- E/DT ([1]; 10 min after drug interruption): 16,5±1,78 m/s2
- E/e' ([1]; 10 min after drug interruption): 40,22±0,82
- EF ([1]; 10 min after drug interruption): 92,66±1,05%
- FS ([1]; 10 min after drug interruption): 61,3±2,05%
- HR ([1]; 10 min after drug interruption): 228±10 bpm
- IVSTd ([1]; 10 min after drug interruption): 1,68 ± 0,07 mm
- IVSTs ([1]; 10 min after drug interruption): 2,55 ± 0,10 mm
- LVEDD ([1]; 10 min after drug interruption): 6,84 ± 0,17 mm
- LVESD ([1]; 10 min after drug interruption): 2,64 ± 0,17 mm
- PWTd ([1]; 10 min after drug interruption): 1,17 ± 0,07 mm
- PWTs ([1]; 10 min after drug interruption): 2,42 ± 0,10 mm
- SV ([1]; 10 min after drug interruption): 0,68±0,05 ml
- a' ([1]; 10 min after drug interruption): 26,22±1,31 mm/s
- e' ([1]; 10 min after drug interruption): 19,4±0,60 mm/s
- e'/a' ([1]; 10 min after drug interruption): 0,76±0,047
- s' ([1]; 10 min after drug interruption): 20,6±0,53 mm/s
- CO [1, 4]: 177,2±11,27 ml/min
- DT [1, 4]: 42,46±2,83 ms
- DT/E [1, 4]: 49,52±3,44 s2/mm
- E/A [1, 4]: 1,36±0,05
- E/DT [1, 4]: 21,49±1,61 m/s2
- E/e' [1, 4]: 37,49±1,2
- EF [1, 4]: 90,68±1,4%
- FS [1, 4]: 58,1±2,38%
- HR [1, 4]: 268±15 bpm
- IVSTd [1, 4]: 1,81±0,08 mm
- IVSTs [1, 4]: 2,34±0,10 mm
- LVEDD [1, 4]: 6,86±0,17 mm
- LVESD [1, 4]: 2,87±0,18 mm
- PWTd [1, 4]: 1,16±0,07 mm
- PWTs [1, 4]: 2,59±0,09 mm
- SV [1, 4]: 0,68±0,05 ml
- a' [1, 4]: 29,13±1,82 mm/s
- e' [1, 4]: 23,33±0,73 mm/s
- e'/a' [1, 4]: 0,84±0,07
- s' [1, 4]: 22,4±0,86 mm/s
- CO [1, 5]: 175,15±9,4 ml/min
- DT [1, 5]: 42,15±2,74 ms
- DT/E [1, 5]: 48,51±4,56 s2/mm
- E/A [1, 5]: 1,34±0,06
- E/DT [1, 5]: 23,18±2,32 m/s2
- E/e' [1, 5]: 37,45±1,24
- EF [1, 5]: 92,19±1,18%
- FS [1, 5]: 60,7±2,31%
- HR [1, 5]: 252±14 bpm
- IVSTd [1, 5]: 1,71±0,1 mm
- IVSTs [1, 5]: 2,55±0,13 mm
- LVEDD [1, 5]: 6,94±0,15 mm
- LVESD [1, 5]: 2,73±0,18 mm
- PWTd [1, 5]: 1,22±0,07 mm
- PWTs [1, 5]: 2,53±0,10 mm
- SV [1, 5]: 0,71±0,04 ml
- a' [1, 5]: 28,94±1,47 mm/s
- e' [1, 5]: 24,24±0,65 mm/s
- e'/a' [1, 5]: 0,86±0,05
- s' [1, 5]: 21,8±0,78 mm/s
- systolic function ([1]; i.v. infusion at a single dose): did not affect systolic function significantly
- Ca2+ transient (CaT) decay time constant [2]: sharply accelerated Ca^2+ transient (CaT) decay
- CaT amplitude [2]: not significantly affected
- excitation release (ER) gain [2]: increased excitation release (ER) gain
- concentration above which INaK inhibition is detectable [3]: higher than 20 μM

From paper PMC9150102 (Journal of Medicinal Chemistry, 2022)
